Measurements as given in patent publication US10611731B2, “5-methyl-6-phenyl-4,5-dihydro-2H-pyridazin-3-one derivative” (OTSUKA PHARMACEUTICAL CO., LTD., priority 2016, dated 2020).

The compounds below were run on human childhood brain tumor cell lines (PFSK-1) (assay: Growth inhibitory activity against PFSK-1 cells (WST-8, Cell Counting Kit-8)). Conditions: Homo sapiens, 72 h, 3 days incubation with test compound, WST-8 OD 450/630 nm, read-out: IC50 (concentration inhibiting 50% of the cell growth).
Assay type: cell-based
Method in brief: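 Cells seeded in RPMI 1640 with 10% FBS and preincubated 24 h at 37 °C, 5% CO2, then exposed to compound for 3 days. IC50 (nM) from growth relative to untreated control.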
Compound `C[C@@H]1CC(=O)NN=C1c1cc(Cl)c(OCC(C)(C)CO)c(Br)c1` [Example 127, (5R)-(−)-6-[3-bromo-5-chloro-4-(3-hydroxy-2,2-dimethylpropoxy)phenyl]-5-methyl-4,5-dihydro-2H-pyridazin-3-one] has an IC50 of less than 1 nM. With `Cc1cc(C2=NNC(=O)CC2C)c(O)c(Cl)c1OCC(C)(C)O` (centres unmarked) [Example 129, 6-[3-Chloro-2-hydroxy-4-(2-hydroxy-2-methylpropoxy)-5-methylphenyl]-5-methyl-4,5-dihydro-2H-pyridazin-3-one] the IC50 was 3.6 nM. Compound `Cc1c(O)c(C2=NNC(=O)CC2C)cc(Cl)c1OCC(C)(C)O` (centres unmarked) [Example 130, 6-[5-Chloro-2-hydroxy-4-(2-hydroxy-2-methylpropoxy)-3-methylphenyl]-5-methyl-4,5-dihydro-2H-pyridazin-3-one] has an IC50 of 7 nM. Work on `CC1CC(=O)NN=C1c1cc(F)c(OCC(C)(C)O)c(Cl)c1F` (centres unmarked) [Example 131, 6-[3-chloro-2,5-difluoro-4-(2-hydroxy-2-methylpropoxy)phenyl]-5-methyl-4,5-dihydro-2H-pyridazin-3-one] yielded an IC50 of 1 nM. With `Cc1cc(C2=NNC(=O)CC2C)c(F)c(C)c1OCC(C)(C)O` (centres unmarked) [Example 132, 6-[2-Fluoro-4-(2-hydroxy-2-methylpropoxy)-3,5-dimethylphenyl]-5-methyl-4,5-dihydro-2H-pyridazin-3-one] the IC50 was 3 nM. For `C=Cc1c(OCC(C)(C)O)ccc(C2=NNC(=O)CC2C)c1F` (centres unmarked) [Example 133, 6-[2-Fluoro-4-(2-hydroxy-2-methylpropoxy)-3-vinylphenyl]-5-methyl-4,5-dihydro-2H-pyridazin-3-one], the IC50 was 3.4 nM. `CCc1c(OCC(C)(C)O)ccc(C2=NNC(=O)CC2C)c1F` (centres unmarked) [Example 134, 6-[3-Ethyl-2-fluoro-4-(2-hydroxy-2-methylpropoxy)phenyl]-5-methyl-4,5-dihydro-2H-pyridazin-3-one] was tested, and the IC50 was 7.1 nM. Compound `C=Cc1c(OCCO)ccc(C2=NNC(=O)CC2C)c1F` (centres unmarked) [Example 135, 6-[2-Fluoro-4-(2-hydroxyethoxy)-3-vinylphenyl]-5-methyl-4,5-dihydro-2H-pyridazin-3-one] has an IC50 of 6.8 nM. `Cc1c(F)c(C2=NNC(=O)CC2C)cc(Cl)c1OCC(C)(C)CO` (centres unmarked) [Example 136, 6-[5-Chloro-2-fluoro-4-(3-hydroxy-2,2-dimethylpropoxy)-3-methylphenyl]-5-methyl-4,5-dihydro-2H-pyridazin-3-one] showed an IC50 of 5.2 nM. Work on `Cc1cc(C2=NNC(=O)CC2C)c(F)c(Cl)c1OCC(C)(C)CO` (centres unmarked) [Example 137, 6-[3-chloro-2-fluoro-4-(3-hydroxy-2,2-dimethylpropoxy)-5-methylphenyl]-5-methyl-4,5-dihydro-2H-pyridazin-3-one] yielded an IC50 of less than 1 nM. Work on `Cc1cc(C2=NNC(=O)CC2C)c(F)c(C)c1OCC(C)(C)CO` (centres unmarked) [Example 138, 6-[2-Fluoro-4-(3-hydroxy-2,2-dimethylpropoxy)-3,5-dimethylphenyl]-5-methyl-4,5-dihydro-2H-pyridazin-3-one] yielded an IC50 of 3.9 nM. `CC1CC(=O)NN=C1c1cc(F)c(OCC(C)(C)CO)c(Cl)c1F` (centres unmarked) [Example 139, 6-[3-Chloro-2,5-difluoro-4-(3-hydroxy-2,2-dimethylpropoxy)phenyl]-5-methyl-4,5-dihydro-2H-pyridazin-3-one] was tested, and the IC50 was 2.7 nM. `CC1CC(=O)NN=C1c1cc(F)c(OCCCO)c(Cl)c1F` (centres unmarked) [Example 140, 6-[3-chloro-2,5-difluoro-4-(3-hydroxypropoxy)phenyl]-5-methyl-4,5-dihydro-2H-pyridazin-3-one] gave an IC50 of 2 nM. Compound `Cc1cc(C2=NNC(=O)CC2C)c(F)c(C)c1OCCCO` (centres unmarked) [Example 141, 6-[2-Fluoro-4-(3-hydroxypropoxy)-3,5-dimethylphenyl]-5-methyl-4,5-dihydro-2H-pyridazin-3-one] has an IC50 of 4.6 nM. In the case of `Cc1cc(C2=NNC(=O)CC2C)cc(Cl)c1OCC(C)CO` (centres unmarked) [Example 142, 6-[3-chloro-4-(3-hydroxy-2-methylpropoxy)-5-methylphenyl]-5-methyl-4,5-dihydro-2H-pyridazin-3-one], the IC50 is reported as 1 nM. For `Cc1cc(C2=NNC(=O)CC2C)cc(Cl)c1OCCC(C)O` (centres unmarked) [Example 143, 6-[3-Chloro-4-(3-hydroxybutoxy)-5-methylphenyl]-5-methyl-4,5-dihydro-2H-pyridazin-3-one], the IC50 was 6.9 nM. `Cc1cc(C2=NNC(=O)CC2C)cc(Cl)c1OCC1(CO)CC1` (centres unmarked) [Example 144, 6-{3-Chloro-4-[1-(hydroxymethyl)cyclopropylmethoxy]-5-methylphenyl}-5-methyl-4,5-dihydro-2H-pyridazin-3-one] showed an IC50 of 4.2 nM. `CC1CC(=O)NN=C1c1ccc(OCC2(CO)CC2)c(F)c1F` (centres unmarked) [Example 145, 6-{2,3-Difluoro-4-[1-(hydroxymethyl)cyclopropylmethoxy]phenyl}-5-methyl-4,5-dihydro-2H-pyridazin-3-one] showed an IC50 of 7.1 nM. Compound `CC1CC(=O)NN=C1c1ccc(OCC(C)(C)CCO)c(Cl)c1O` (centres unmarked) [Example 146, 6-[3-chloro-2-hydroxy-4-(4-hydroxy-2,2-dimethylbutoxy)phenyl]-5-methyl-4,5-dihydro-2H-pyridazin-3-one] has an IC50 of 6.8 nM. `Cc1c(F)c(C2=NNC(=O)CC2C)cc(Cl)c1OCC(C)O` (centres unmarked) [Example 147, 6-[5-Chloro-2-fluoro-4-(2-hydroxypropoxy)-3-methylphenyl]-5-methyl-4,5-dihydro-2H-pyridazin-3-one] showed an IC50 of 7.6 nM. In the case of `Cc1cc(C2=NNC(=O)CC2C)c(F)c(Cl)c1OCC(C)O` (centres unmarked) [Example 148, 6-[3-Chloro-2-fluoro-4-(2-hydroxypropoxy)-5-methylphenyl]-5-methyl-4,5-dihydro-2H-pyridazin-3-one], the IC50 is reported as less than 1 nM. `CC(O)COc1c(F)cc(C2=NNC(=O)CC2C)c(F)c1Cl` (centres unmarked) [Example 149, 6-[3-Chloro-2,5-difluoro-4-(2-hydroxypropoxy)phenyl]-5-methyl-4,5-dihydro-2H-pyridazin-3-one] showed an IC50 of 3.6 nM. For `Cc1cc(C2=NNC(=O)CC2C)c(F)c(C)c1OC/C=C\CO` (centres unmarked) [Example 150, 6-{2-Fluoro-4-[(Z)-4-hydroxy-2-butenyloxy]-3,5-dimethylphenyl}-5-methyl-4,5-dihydro-2H-pyridazin-3-one], the IC50 was 3.7 nM. `Cc1cc(C2=NNC(=O)CC2C)c(F)c(Cl)c1OC/C=C\CO` (centres unmarked) [Example 151, 6-{3-Chloro-2-fluoro-4-[(Z)-4-hydroxy-2-butenyloxy]-5-methylphenyl}-5-methyl-4,5-dihydro-2H-pyridazin-3-one] showed an IC50 of 1.3 nM. With `CC1CC(=O)NN=C1c1cc(F)c(OC/C=C\CO)c(Cl)c1F` (centres unmarked) [Example 152, 6-{3-Chloro-2,5-difluoro-4-[(Z)-4-hydroxy-2-butenyloxy]phenyl}-5-methyl-4,5-dihydro-2H-pyridazin-3-one] the IC50 was 3.4 nM. `Cc1c(OC/C=C\CO)ccc(C2=NNC(=O)CC2C)c1O` (centres unmarked) [Example 153, 6-{2-Hydroxy-4-[(Z)-4-hydroxy-2-butenyloxy]-3-methylphenyl}-5-methyl-4,5-dihydro-2H-pyridazin-3-one] was tested, and the IC50 was 5.3 nM. `Cc1c(F)c(C2=NNC(=O)CC2C)cc(Cl)c1OCC(F)(F)CO` (centres unmarked) [Example 158, 6-[5-Chloro-4-(2,2-difluoro-3-hydroxypropoxy)-2-fluoro-3-methylphenyl]-5-methyl-4,5-dihydro-2H-pyridazin-3-one] was tested, and the IC50 was 4.3 nM. Compound `Cc1cc(C2=NNC(=O)CC2C)c(F)c(Cl)c1OCC(F)(F)CO` (centres unmarked) [Example 159, 6-[3-Chloro-4-(2,2-difluoro-3-hydroxypropoxy)-2-fluoro-5-methylphenyl]-5-methyl-4,5-dihydro-2H-pyridazin-3-one] has an IC50 of less than 1 nM. In the case of `Cc1cc(C2=NNC(=O)CC2C)c(F)c(C)c1OCC(F)(F)CO` (centres unmarked) [Example 160, 6-[4-(2,2-Difluoro-3-hydroxypropoxy)-2-fluoro-3,5-dimethylphenyl]-5-methyl-4,5-dihydro-2H-pyridazin-3-one], the IC50 is reported as 1.9 nM. Work on `CC1CC(=O)NN=C1c1cc(F)c(OCC(F)(F)CO)c(Cl)c1F` (centres unmarked) [Example 161, 6-[3-Chloro-4-(2,2-difluoro-3-hydroxypropoxy)-2,5-difluorophenyl]-5-methyl-4,5-dihydro-2H-pyridazin-3-one] yielded an IC50 of 2.7 nM. `CC1CC(=O)NN=C1c1ccc(OCC(F)(F)CO)c(Cl)c1O` (centres unmarked) [Example 162, 6-[3-Chloro-4-(2,2-difluoro-3-hydroxypropoxy)-2-hydroxyphenyl]-5-methyl-4,5-dihydro-2H-pyridazin-3-one] was tested, and the IC50 was 6.4 nM. Work on `CCC(O)COc1ccc(C2=NNC(=O)CC2C)c(O)c1Cl` (centres unmarked) [Example 163, 6-[3-Chloro-2-hydroxy-4-(2-hydroxybutoxy)phenyl]-5-methyl-4,5-dihydro-2H-pyridazin-3-one] yielded an IC50 of 5.2 nM. With `Cc1cc(C2=NNC(=O)CC2C)c(O)c(Cl)c1OCC(C)O` (centres unmarked) [Example 164, 6-[3-Chloro-2-hydroxy-4-(2-hydroxypropoxy)-5-methylphenyl]-5-methyl-4,5-dihydro-2H-pyridazin-3-one] the IC50 was 4.9 nM. `CC1CC(=O)NN=C1c1cc(Cl)c(OCC2(O)CC2)c(Br)c1` (centres unmarked) [Example 165, 6-{3-bromo-5-chloro-4-[(1-hydroxycyclopropyl)methoxy]phenyl}-5-methyl-4,5-dihydro-2H-pyridazin-3-one] was tested, and the IC50 was 2.6 nM. With `Cc1c(OCC2(O)CC2)ccc(C2=NNC(=O)CC2C)c1O` (centres unmarked) [Example 166, 6-{2-Hydroxy-4-[(1-hydroxycyclopropyl)methoxy]-3-methylphenyl}-5-methyl-4,5-dihydro-2H-pyridazin-3-one] the IC50 was 4.7 nM. For `Cc1cc(C2=NNC(=O)CC2C)c(F)c(Cl)c1OCC1(O)CC1` (centres unmarked) [Example 167, 6-{3-Chloro-2-fluoro-4-[(1-hydroxycyclopropyl)methoxy]-5-methylphenyl}-5-methyl-4,5-dihydro-2H-pyridazin-3-one], the IC50 was 1.3 nM. With `CC1CC(=O)NN=C1c1ccc(OCC2(O)CC2)c(Br)c1F` (centres unmarked) [Example 168, 6-{3-Bromo-2-fluoro-4-[(1-hydroxycyclopropyl)methoxy]phenyl}-5-methyl-4,5-dihydro-2H-pyridazin-3-one] the IC50 was 2.3 nM. Work on `CC1CC(=O)NN=C1c1cc(F)c(OCC2(O)CC2)c(Br)c1` (centres unmarked) [Example 169, 6-{3-Bromo-5-fluoro-4-[(1-hydroxycyclopropyl)methoxy]phenyl}-5-methyl-4,5-dihydro-2H-pyridazin-3-one] yielded an IC50 of 4 nM.
